Measured values: patent US20230381774A1, “MICROFLUDIC LAB-ON-CHIP DEVICE, MATRIX, SMALL MOLECULES AND THREE-DIMENSIONAL SPHEROIDS FOR CELL REPROGRAMMING” (The Regents of the University of California, priority 2022, published 2023)
Entries after “also recorded” stand apart in the source; their conditions may differ.

Columns and labels:
[1] = system: BAM-transduced fibroblasts; assay: iN reprogramming of BAM-transduced fibroblasts with cytoskeletal and adhesion inhibitors (TUBB3+ iN cells, 2 weeks); type: cell-based, mouse; details: for dose response of reprogramming efficiency: varying concentrations
Procedure: To examine whether these changes in cell stiffness, actin structure and expression of contractility-mediating genes were involved in iN reprogramming, we evaluated the effects of disrupting the cytoskeleton using small molecule inhibitors. For these experiments, BAM-transduced fibroblasts were reprogrammed as in FIG. 1A and chemical compounds known to perturb the cytoskeleton were added to the culture medium on day 1 to evaluate their effects on the reprogramming process. […] The reprogramming efficiency was determined as the percentage of TUBB3*-iN cells normalized to the number of cells plated at 24 hours post-seeding (i.e., day 0). First, we tested whether disruption of cytoskeletal contractility could influence the direct reprogramming of fibroblasts into neurons using blebbistatin, a non-muscle myosin II inhibitor^22-24. We observed that iN cells could be derived in the absence and presence of blebbistatin (FIG. 3A). […] In particular, treatment with 10 μM blebbistatin generated the highest number of iN cells and increased the reprogramming efficiency by approximately 4.5-fold compared to the control, therefore, this concentration was used in all subsequent experiments. […] As Ascl1 has been identified as a pioneer factor for iN reprogramming and transduction of Ascl1 alone is sufficient to generate iN cells^25,26, we further investigated whether blebbistatin could influence iN conversion by Ascl1 induction.
After transduction, mouse fibroblasts were seeded onto multi-well tissue culture-treated polystyrene dishes (Falcon) coated with laminin (0.1 mg/ml, Corning) at 4,000 cells per cm^2. Twenty-four hours after seeding, the medium was replaced to MEF medium containing doxycycline (2 μg/ml, Sigma). The following day (i.e., day 1) the medium was changed to N3 medium (DMEM/F12 [GIBCO]+N2 supplement [Invitrogen]+B27 supplement [Invitrogen]+1% penicillin/streptomycin [Gibco]+ doxycycline [2 μg/ml, Sigma]) and the cultures were maintained in this medium for the duration of the experiments. For Ascl1-only reprogramming, N3 medium was further supplemented with BDNF (5 ng/ml, R&D systems) and GDNF (5 ng/ml, R&D systems) after day 7. For cytoskeletal and cell adhesion disruptions, Blebbistatin (Millipore), Y-27632 (20 μM; Cayman Chemical), Nocodazole (0.3 μM; Sigma), Cytochalasin D (1 μM; Sigma), Jasplakinolide (0.05 μM; Cayman Chemical) and PF573228 (Sigma) were administered in N3 medium on day 1 and for the first 7 days of reprogramming (unless stated otherwise) and used at the indicated concentrations. Culture medium was replenished every 2 days during reprogramming to maintain the activity of the small molecules. After culturing for the desired length (14 days for BAM and 21 days for Ascl1 only), the induced neuronal (iN) cells were analyzed and the reprogramming efficiency was determined.
The reprogramming efficiency was determined by as the percentage of TUBB3^+ iN cells in each condition normalized to the number of cells plated at 24 hours post-seeding. Epifluorescence images were collected using a Zeiss Axio Observer.D1, Zeiss Axio Observer.Z1, and ImageXpress Micro XLS System (Molecular Devices), whereas confocal images were acquired using a Zeiss LSM710 microscope and Leica SP8 Confocal Laser Scanning microscope.

[2] = system: promoter regions of Ascl1, Brn2, Myt1l and TUBB3; assay: ChIP-qPCR of histone modifications at neuronal gene promoters; type: cell-based, mouse; details: BAM-transduced fibroblasts, day 3, relative to DMSO
Procedure: Halt™ Protease and Phosphatase Inhibitor Cocktail (ThermoFisher Scientific, 78442) was added to Cell Lysis (10 mM Tris-HCl pH 8.0, 85 mM KCl, 0.5% NP-40), Nuclei Lysis (10 mM Tris-HCl pH 7.5, 1% NP-40, 0.5% sodium deoxycholate, 0.1% SDS), and ChIP Dilution (0.01% SDS, 1.1% Triton X-100, 1.2 mM EDTA, 16.7 mM Tris-HCL pH 8.1, 167 mM NaCl) Buffers.
Three days post-Dox addition, 4×10^6 BAM-transduced fibroblasts cultured in the absence and presence of 10 μM blebbistatin and 5 μM PF573228, respectively, for 2 days were fixed using 1% formaldehyde in PBS (Fisher Scientific, BP531) for 10 minutes. 125 mM Glycine was added for 5 minutes to quench excess formaldehyde, followed by 2 washes with cold 1×PBS. Cells were scraped and collected into microcentrifuge tubes and centrifuged at 800 g at 4° C. for 5 minutes. Upon removing the supernatant, cell pellets were snap-frozen in liquid nitrogen and stored at −80° C. The cells were then resuspended and lysed in Cell Lysis Buffer and resuspended in Nuclei Lysis Buffer prior to sonication using a Branson SFX250 Sonifier at 40% amplitude, 0.7 seconds on and 1.3 seconds off, for a total of 8 minutes. […]
50 μL ChIP Elution Buffer was added to the stored internal controls from the post-sonication step. […] ChIP-qPCR data were analyzed by normalizing the DNA concentration to percent input using the relative standard curve method.

Structure (SMILES) | dose response of reprogramming efficiency [1] | histone modifications at promoter regions of Ascl1, Brn2, Myt1l and TUBB3 [2] | concentration generating the highest number of iN cells [1] | time course of TUBB3+ iN cell generation ([1]; as early as day 5) | phase of reprogramming in which treatment is effective ([1]; early days 1-5, mid days 5-9, late days 9-13, 10 μM) | reprogramming efficiency in Tau-EGFP fibroblasts ([1]; mouse fibroblasts isolated from Tau-EGFP mice) | length of treatment sufficient to enhance reprogramming efficiency ([1]; treatment over timescales of 1 to 14 days)
CS(=O)(=O)c1cccc(CNc2nc(Nc3ccc4c(c3)CCC(=O)N4)ncc2C(F)(F)F)c1 [PF573228] | significantly increased the reprogramming efficiency in a biphasic manner; also recorded: promoted iN reprogramming in a biphasic manner | significant increases in AcH3, H3K3me3 and H3K4me1 at the promoter regions | – | – | – | – | –
Cc1ccc2c(c1)C(=O)C1(O)CCN(c3ccccc3)C1=N2 (stereo not drawn) [blebbistatin] | biphasic dose response | significant increases in AcH3, H3K4me3 and H3K4me1 at all four promoter regions | 10 µM | led to more efficient generation of TUBB3^+ iN cells than the control | most crucial during the early phase of reprogramming | enhanced reprogramming efficiency by blebbistatin was also confirmed | 3 days
